According to US4450269A, “Mono-5-substituted-3-chloro-4H-1,2,6-thiadiazin-4-one antifungal agents” (FMC Corporation, priority 1980, dated 1984):
Where two headings read alike, the source gives them in different places.

How the values were obtained:
[1] = system: Alternaria solani; assay: Mycelial growth test; type: cell-based; details: Alternaria solani, 72 h, AS, read-out: Percent Fungus Growth Inhibition
[2] = system: Uromyces phaseoli; assay: whole plant or invertebrate; details: foliar, read-out: Percent Disease Control, foliar, bean rust
[3] = system: Phytophthora infestans; type: cell-based; details: PI, 48 hours
[4] = system: Pyricularia oryzae; type: cell-based; details: PO, 48 hours
[5] = system: Cladosporium cucumerinum; assay: Spore germination test; type: cell-based; details: CC, 48 hours
Procedure: CC = Cladosporium cucumerinum
(§1) The test chemical was dissolved or suspended in acetone in an amount such that 0.8 ml of the resulting suspension or solution, mixed with 40 ml water agar produced a water agar solution containing 40, 10, 2.5 and 1 ppm of test chemical. The resulting agar solution, at 50° C., was then divided equally between two sterile petri dishes, each having four separated quadrants, and allowed to solidify. […] quadrants of each dish were flooded with 0.1 ml of a spore suspension in sterile water. Spores of two pathogens, Erysiphe polygoni and Uromyes phaseoli, from infected plant leaves, were brushed on the remaining two quadrants. The tests were then incubated 48 hours, at 24° C.
(§2) Readings were then taken and the percentage of germinated spores calculated. From this percentage, a spore germination rating was assigned as follows: […]

[6] = system: Fusarium solani; assay: Mycelial growth test; type: cell-based; details: Fusarium solani, 72 h; for inhibition at 5 ppm / inhibition at 10 ppm / inhibition at 20 ppm: PS, 72 hours, read-out: Percent Fungus Growth Inhibition; for inhibition at 40 ppm: read-out: Percent Fungus Growth Inhibition, PS, 40 ppm, 72 hours
[7] = system: Alternaria solani; assay: Spore germination test; type: cell-based; details: AS, 48 hours
Procedure: as §1, §2

[8] = system: Uromyces phaseoli; assay: Spore germination test; type: cell-based; details: UP, 48 hours
Procedure: as §1, §2

[9] = system: Botrytis cinerea; assay: Spore germination test; type: cell-based; details: BC, 48 hours
Procedure: as §1, §2

[10] = system: Erysiphe polygoni; assay: Spore germination test; type: cell-based; details: EP, 48 hours
Procedure: as §1, §2

[11] = system: Pyricularia oryzae; assay: whole plant or invertebrate; type: in vivo; details: Pyricularia oryzae, foliar, 24 h, read-out: Percent Disease Control, curative, rice blast, 150 ppm, 24 hours after inoculation
[12] = system: Pythium ultimum; assay: Mycelial growth test; type: cell-based; details: Globisporangium ultimum, 72 h, PU, read-out: Percent Fungus Growth Inhibition
[13] = system: Helminthosporium oryzae; assay: Mycelial growth test; details: Bipolaris oryzae, 72 h; for inhibition at 5 ppm: read-out: Percent Fungus Growth Inhibition, HO, 5 ppm, 72 hours; for inhibition at 10 ppm: read-out: Percent Fungus Growth Inhibition, HO, 10 ppm, 72 hours; for inhibition at 20 ppm: read-out: Percent Fungus Growth Inhibition, HO, 20 ppm, 72 hours; for inhibition at 40 ppm: read-out: Percent Fungus Growth Inhibition, HO, 40 ppm, 72 hours
[14] = system: Phytophthora infestans; assay: whole plant or invertebrate; type: in vivo; details: Phytophthora infestans, in Solanum lycopersicum, foliar, read-out: Percent Disease Control, foliar, tomato late blight, 150 ppm, protective
[15] = system: Pyricularia oryzae; assay: microbe, parasite or virus in culture; type: cell-based; details: Pyricularia oryzae, 72 h; for inhibition at 5 ppm: read-out: Percent Fungus Growth Inhibition, PO, 5 ppm, 72 hours; for inhibition at 10 ppm: read-out: Percent Fungus Growth Inhibition, PO, 10 ppm, 72 hours; for inhibition at 20 ppm: read-out: Percent Fungus Growth Inhibition, PO, 20 ppm, 72 hours; for inhibition at 40 ppm: read-out: Percent Fungus Growth Inhibition, PO, 40 ppm, 72 hours
[16] = system: Rhizoctonia solani; assay: Mycelial growth test; type: cell-based; details: Rhizoctonia solani, 72 h, RS, read-out: Percent Fungus Growth Inhibition
Source text: | RS = Rhizoctonia solani

[17] = system: Cladosporium cucumerinum; assay: Mycelial growth test; type: cell-based; details: Cladosporium cucumerinum, CC, read-out: Percent Fungus Growth Inhibition; for inhibition at 5 ppm / inhibition at 10 ppm / inhibition at 40 ppm: 72 h; for inhibition at 20 ppm: CC20, 72 h
Source text: |CC = Cladosporium cucumerinum

[18] = system: Sclerotinia fructicola; assay: Mycelial growth test; type: cell-based; details: Sclerotinia, 72 h, SF, read-out: Percent Fungus Growth Inhibition
Source text: | SF = Sclerotinia fructicola

[19] = system: Erysiphe polygoni; assay: whole plant or invertebrate; details: foliar, 24 h, read-out: Percent Disease Control, curative, bean powdery mildew
[20] = system: Uromyces phaseoli; assay: whole plant or invertebrate; details: foliar, 24 h, read-out: Percent Disease Control, curative, bean rust

Structure (SMILES): COc1cc(Cl)cc(Oc2nsnc(Cl)c2=O)c1 [Compound 52, 3-chloro-5-[(3-chloro-5-methoxy)phenoxy]-4H--1,2,6-thiadiazin-4-one]
- inhibition at 5 ppm [1]: 52%
- inhibition at 10 ppm [1]: 71%
- inhibition at 20 ppm [1]: 90%
- inhibition at 40 ppm [1]: 90%
- pest or weed control at 150 ppm [2]: 0%
- Spore Germination Rating ([3]; 1.0 ppm): 4 (80-100)
- Spore Germination Rating ([3]; 2.5 ppm): 0 (0-10)
- Spore Germination Rating ([3]; 10 ppm): 0 (0-10)
- Spore Germination Rating ([3]; 40 ppm): 0 (0-10)
- Spore Germination Rating ([4]; 1.0 ppm): 4 (80-100)
- Spore Germination Rating ([4]; 2.5 ppm): 0 (0-10)
- Spore Germination Rating ([4]; 10 ppm): 0 (0-10)
- Spore Germination Rating ([4]; 40 ppm): 0 (0-10)
- Spore Germination Rating ([5]; 1.0 ppm): 4 (80-100)
- Spore Germination Rating ([5]; 2.5 ppm): 0 (0-10)
- Spore Germination Rating ([5]; 10 ppm): 0 (0-10)
- Spore Germination Rating ([5]; 40 ppm): 0 (0-10)
- inhibition at 5 ppm [6]: 80%
- inhibition at 10 ppm [6]: 90%
- inhibition at 20 ppm [6]: 100%
- inhibition at 40 ppm [6]: 100%
- Spore Germination Rating ([7]; 1.0 ppm): 4 (80-100)
- Spore Germination Rating ([7]; 2.5 ppm): 3 (60-80)
- Spore Germination Rating ([7]; 10 ppm): 0 (0-10)
- Spore Germination Rating ([7]; 40 ppm): 0 (0-10)
- Spore Germination Rating ([8]; 1.0 ppm): 2 (40-60)
- Spore Germination Rating ([8]; 2.5 ppm): 0 (0-10)
- Spore Germination Rating ([8]; 10 ppm): 0 (0-10)
- Spore Germination Rating ([8]; 40 ppm): 0 (0-10)
- Spore Germination Rating ([9]; 1.0 ppm): 4 (80-100)
- Spore Germination Rating ([9]; 2.5 ppm): 3 (60-80)
- Spore Germination Rating ([9]; 10 ppm): 0 (0-10)
- Spore Germination Rating ([9]; 40 ppm): 0 (0-10)
- Spore Germination Rating ([10]; 1.0 ppm): 4 (80-100)
- Spore Germination Rating ([10]; 2.5 ppm): 2 (40-60)
- Spore Germination Rating ([10]; 10 ppm): 0 (0-10)
- Spore Germination Rating ([10]; 40 ppm): 0 (0-10)
- pest or weed control at 150 ppm [11]: 95%
- inhibition at 5 ppm [12]: 4%
- inhibition at 10 ppm [12]: 60%
- inhibition at 20 ppm [12]: 100%
- inhibition at 40 ppm [12]: 100%
- inhibition at 5 ppm [13]: 100%
- inhibition at 10 ppm [13]: 89%
- inhibition at 20 ppm [13]: 100%
- inhibition at 40 ppm [13]: 100%
- pest or weed control at 150 ppm [14]: 50%
- inhibition at 5 ppm [15]: 58%
- inhibition at 10 ppm [15]: 77%
- inhibition at 20 ppm [15]: 100%
- inhibition at 40 ppm [15]: 100%
- inhibition at 5 ppm [16]: 33%
- inhibition at 10 ppm [16]: 64%
- inhibition at 20 ppm [16]: 64%
- inhibition at 40 ppm [16]: 100%
- inhibition at 5 ppm [17]: 15%
- inhibition at 10 ppm [17]: 46%
- inhibition at 40 ppm [17]: 77%
- inhibition at 20 ppm [17]: 88%
- inhibition at 5 ppm [18]: 65%
- inhibition at 10 ppm [18]: 81%
- inhibition at 20 ppm [18]: 100%
- inhibition at 40 ppm [18]: 100%
- pest or weed control at 150 ppm [19]: 75%
- pest or weed control at 150 ppm [20]: 0%

Structure (SMILES): COc1cc(Oc2nsnc(Cl)c2=O)cc(OC)c1C(C)=O [Compound 61, 3-[(4-acetyl-3,5-dimethoxy)-phenoxy]-5-chloro-4H--1,2,6-thiadiazin-4-one]
- inhibition at 5 ppm [1]: 33%
- inhibition at 10 ppm [1]: 29%
- inhibition at 20 ppm [1]: 25%
- inhibition at 40 ppm [1]: 42%
- pest or weed control at 150 ppm [2]: 100%
- Spore Germination Rating ([3]; 1.0 ppm): 4 (80-100)
- Spore Germination Rating ([3]; 2.5 ppm): 4 (80-100)
- Spore Germination Rating ([3]; 10 ppm): 3 (60-80)
- Spore Germination Rating ([3]; 40 ppm): 0 (0-10)
- Spore Germination Rating ([4]; 1.0 ppm): 4 (80-100)
- Spore Germination Rating ([4]; 2.5 ppm): 4 (80-100)
- Spore Germination Rating ([4]; 10 ppm): 2 (40-60)
- Spore Germination Rating ([4]; 40 ppm): 1 (10-40)
- Spore Germination Rating ([5]; 1.0 ppm): 4 (80-100)
- Spore Germination Rating ([5]; 2.5 ppm): 0 (0-10)
- Spore Germination Rating ([5]; 10 ppm): 0 (0-10)
- Spore Germination Rating ([5]; 40 ppm): 0 (0-10)
- inhibition at 5 ppm [6]: 16%
- inhibition at 10 ppm [6]: 46%
- inhibition at 20 ppm [6]: 23%
- inhibition at 40 ppm [6]: 0%
- Spore Germination Rating ([7]; 1.0 ppm): 4 (80-100)
- Spore Germination Rating ([7]; 2.5 ppm): 3 (60-80)
- Spore Germination Rating ([7]; 10 ppm): 2 (40-60)
- Spore Germination Rating ([7]; 40 ppm): 2 (40-60)
- Spore Germination Rating ([8]; 1.0 ppm): 2 (40-60)
- Spore Germination Rating ([8]; 2.5 ppm): 1 (10-40)
- Spore Germination Rating ([8]; 10 ppm): 2 (40-60)
- Spore Germination Rating ([8]; 40 ppm): 0 (0-10)
- Spore Germination Rating ([9]; 1.0 ppm): 4 (80-100)
- Spore Germination Rating ([9]; 2.5 ppm): 4 (80-100)
- Spore Germination Rating ([9]; 10 ppm): 3 (60-80)
- Spore Germination Rating ([9]; 40 ppm): 2 (40-60)
- Spore Germination Rating ([10]; 1.0 ppm): 1 (10-40)
- Spore Germination Rating ([10]; 2.5 ppm): 1 (10-40)
- Spore Germination Rating ([10]; 10 ppm): 1 (10-40)
- Spore Germination Rating ([10]; 40 ppm): 0 (0-10)
- pest or weed control at 150 ppm [11]: 0%
- inhibition at 5 ppm [12]: 31%
- inhibition at 10 ppm [12]: 42%
- inhibition at 20 ppm [12]: 100%
- inhibition at 40 ppm [12]: 100%
- inhibition at 5 ppm [13]: 13%
- inhibition at 10 ppm [13]: 33%
- inhibition at 20 ppm [13]: 100%
- inhibition at 40 ppm [13]: 100%
- pest or weed control at 150 ppm [14]: 0%
- inhibition at 5 ppm [15]: 28%
- inhibition at 10 ppm [15]: 42%
- inhibition at 20 ppm [15]: 50%
- inhibition at 40 ppm [15]: 44%
- inhibition at 5 ppm [16]: 0%
- inhibition at 10 ppm [16]: 13%
- inhibition at 20 ppm [16]: 33%
- inhibition at 40 ppm [16]: 47%
- inhibition at 5 ppm [17]: 6%
- inhibition at 10 ppm [17]: 23%
- inhibition at 40 ppm [17]: 52%
- inhibition at 20 ppm [17]: 32%
- inhibition at 5 ppm [18]: 7%
- inhibition at 10 ppm [18]: 19%
- inhibition at 20 ppm [18]: 59%
- inhibition at 40 ppm [18]: 85%
- pest or weed control at 150 ppm [19]: 0%
- pest or weed control at 150 ppm [20]: 0%
